Target: T1, SlitBest1b (Spodoptera littoralis, UniProt I6YK90)
T1 construct: full open reading frame without stop codon in pCINeo/IRES-GFP, expressed transiently in CHO-K1 cells
T1 sequence (I6YK90 1-707): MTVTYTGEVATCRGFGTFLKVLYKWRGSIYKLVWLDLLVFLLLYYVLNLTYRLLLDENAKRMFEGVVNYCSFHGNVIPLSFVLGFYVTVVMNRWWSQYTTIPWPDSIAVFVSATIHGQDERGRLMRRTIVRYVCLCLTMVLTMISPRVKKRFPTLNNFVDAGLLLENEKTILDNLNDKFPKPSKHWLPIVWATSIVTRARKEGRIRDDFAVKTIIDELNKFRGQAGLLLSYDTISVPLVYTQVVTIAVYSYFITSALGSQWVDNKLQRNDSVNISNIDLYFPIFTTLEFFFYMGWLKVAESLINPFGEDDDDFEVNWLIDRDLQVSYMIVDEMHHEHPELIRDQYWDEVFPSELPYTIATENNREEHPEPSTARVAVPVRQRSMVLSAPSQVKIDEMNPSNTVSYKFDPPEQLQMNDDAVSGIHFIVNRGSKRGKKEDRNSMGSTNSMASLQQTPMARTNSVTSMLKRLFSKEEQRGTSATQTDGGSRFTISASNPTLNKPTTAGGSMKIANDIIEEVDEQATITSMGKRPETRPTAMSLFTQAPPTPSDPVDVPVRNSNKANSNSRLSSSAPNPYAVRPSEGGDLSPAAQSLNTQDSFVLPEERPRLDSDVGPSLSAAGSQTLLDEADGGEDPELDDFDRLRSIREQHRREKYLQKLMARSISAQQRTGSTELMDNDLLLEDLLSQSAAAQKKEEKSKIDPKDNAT
Experiment: whole-cell patch clamp, steady-state Ca2+-activated Cl- current in transfected CHO-K1 cells
Assay type: cell-based
From the text: whole-cell patch clamp, steady-state Ca2+-activated Cl- current in transfected CHO-K1 cells on SlitBest1b

inhibition at 300 µM [%]	inhibition at 100 µM [%]	SMILES
65.1 ± 8.9	–	O=C(O)c1cccnc1Nc1cccc(C(F)(F)F)c1 [niflumic acid]
–	78.7 ± 8.2	O=C(O)c1ccccc1Nc1cccc(C(F)(F)F)c1 [flufenamic acid]
–	101 ± 7.6	O=C(O)c1cc([N+](=O)[O-])ccc1NCCCc1ccccc1 [NPPB, 5-nitro-2-(3-phenylpropylamino) benzoic acid]

— article PMC3530479, “Bestrophin-Encoded Ca^2+-Activated Cl^− Channels Underlie a Current with Properties Similar to the Native Current in the Moth Spodoptera littoralis Olfactory Receptor Neurons” (PLoS ONE, 2012)
